Laboratory results taken from patent US11510908B2, “Protein translation inhibitors and uses thereof” (University of Maryland, Baltimore, priority 2019, dated 2022).

Assays:
[1] = PAMPA (parallel artificial membrane permeability assay); format: in vitro ADME; settings: measured at pH 5.0 and 6.8, room temperature, ~4 hours, read-out: Effective permeability Pe
Procedure: The PAMPA assay was performed by Pion (Billerica, Mass.) on 81 compounds selected out of the 264 compounds showing at least 80% similarity to Compound 1, logP<5.0, and 4DBA closer to 0 (>−4.9). The compounds were dissolved at 10 mM in Dimethyl sulfoxide (DMSO, spectrophotometric grade) and filtered (0.2 μm pore size, hyrodophylic PVDF). The assays were carried in the PAMPA STIRWELL plates (lot A0440) and measured at pH 5.0 and 6.8 at room temperature for ˜4 hours on a PAMPA EVOLUTION instrument.

[2] = test system: melanoma LOX-IM-VI, colon cancer RKO, Glioblastoma D54, pancreatic cancer MiaPaca, MDA-MD-231 cells; test: Cell viability of human cancer cells (Apo-Tox-Glo); format: cell-based; settings: 24 hrs, increasing concentration
Procedure: (§1) Cell Viability and Tumor Growth In Vivo
(§2) Cells viability was measured on normal human mammary epithelial cells (HMEC: ATCC, Gaithersburg, Md.) grown as recommended by the manufacturer and human cancer cells including melanoma LOX-IM-VI, colon cancer RKO, Gliobalstoma D54, pancreatic cancer MiaPaca and triple negative breast cancer MDA-MD-231 cells (5) with the Apo-Tox-Glo kit (Promega, Madison, Wis.) as recommended by the manufacturer. The cells were plated (10,000 cells per well) on a 96 well plate and exposed to increasing concentration of chemical probes for 24 hrs and reacted with the viability reagent as recommended. Fluorescence was measured on a plate reader at 400 nm Ex/505 nm Em.

[3] = test system: normal human mammary epithelial cells (HMEC); test: Cell viability of normal human mammary epithelial cells (Apo-Tox-Glo); format: cell-based; settings: 24 hrs; for Effect on normal cells viability: Compounds 2 and 3 at doses as high as 150 μM
Procedure: as §1, §2

hnRNP A18 [4] = molecular target: T1, hnRNP A18 (Homo sapiens, UniProt Q14011); test: Fluorescence anisotropy competition binding of hnRNP A18 to fluorescein tagged RNA motif 1; parameters: recombinant full length His-hnRNP A18 incubated with biotinylated hnRNP A18 RNA motif 1; settings: 25° C., 30 min, read-out: IC50, inhibition of hnRNP A18 binding to its cognate RNA
T1 sequence (Q14011 1-172): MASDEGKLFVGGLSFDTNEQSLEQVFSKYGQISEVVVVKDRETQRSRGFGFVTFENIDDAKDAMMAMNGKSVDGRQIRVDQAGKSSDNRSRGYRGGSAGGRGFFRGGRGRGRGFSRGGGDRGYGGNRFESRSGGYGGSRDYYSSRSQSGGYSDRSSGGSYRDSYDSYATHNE
Procedure: Quantitative assessments of hnRNP A18-RNA binding equilibria were performed using fluorescence anisotropy essentially as described (36). Briefly, binding reactions (100 μl) were assembled as described for RNA band shift (EMSAs) but in absence of glycerol and using fluorescein labeled rather than biotin labeled RNA substrates. Reactions were incubated at 25° C. for 30 min; preliminary kinetics runs verified that equilibrium was attained within this period. Subsequently, total reaction anisotropy (At) and fluorescence intensity were measured using a Beacon 2000 Fluorescence Polarization System (Panvera) equipped with a 490-nm excitation filter and a 535-nm emission filter. Drug-dependent changes in At were analyzed by nonlinear regression using the four parameter logistic equation (Eq.1) and PRISM software (GraphPad).
Here, APR represents the intrinsic anisotropy of the protein:RNA complex in the absence of tested compounds, AR is the anisotropy of the RNA ligand in the absence of protein, [drug] is the concentration of each tested compound, and h is the Hill slope.

hnRNP A18 [5] = molecular target: T1, hnRNP A18; test: RNA band shift (EMSA) with His-hnRNP A18 and biotinylated hnRNP A18 RNA motif 1; format: binding; parameters: recombinant full length His-hnRNP A18 incubated with biotinylated hnRNP A18 RNA motif 1; settings: increasing concentrations of compound
Procedure: RNA band shifts were performed according to the manufacturer recommendations (LightShift Chemiluminescent RNA EMSA kit, Thermo Scientific, Rockford, Ill.). Briefly recombinant His-hnRNP A18 or His-hnRNP A1 (1 μg) were incubated with biotinylated RNA (hnRNP A18 motif 1, IRE 28 or 51 nucleotides) in 20 μl and run on native polyacrylamide gels transfer to nylon probes and hybridize with streptavidin HRP antibody.

hnRNP A18 [6] = molecular target: T1, hnRNP A18; test: Cellular Engagement Thermal Shift Assay (CETSA) in LOX-IM-VI cells; format: cell-based; parameters: expressed in transfected cells; host or cells: LOX-IM-VI human melanoma cells stably transfected with hnRNP A18-GFP; settings: 3 hours, heat shock at Tagg(75), read-out: EC50, binding and stabilization of hnRNP A18 in cells
Procedure: Cellular Thermal Shift Assay (CETSA)
Cellular thermal shift assay (CETSA) was performed with LOX-IM-VI hnRNP
A18 cells cultured in RPMI medium supplemented with 10% FBS. For an initial determination of the melting profile of hnRNP A18, cells dispensed into 96-well PCR plate in the above medium (5000 cells/well/50 μl), were subjected to temperature gradient (40-60° C.) for 10 min. Cold non-denaturing lysis buffer (PBS supplemented with 0.1% TritonX-100 and 1× protease inhibitors) was added to wells, and the plate was rocked and incubated for 15 min on ice. Subsequently, centrifugation was performed at 14.000 rpm to sediment the unstable protein content. Supernatant was collected, and SDS-PAGE gel was run, and immuno-detection was performed using poly-clonal anti-hnRNP A18 antibody (Sigma, CIRP). hnRNP A18 band was quantified on LI-COR C-Digit Blot Scanner, and subsequently Tagg(50) and Tagg(75) values were calculated for hnRNP A18.
In a subsequent run, cells were treated at various doses (80, 40, 20, 10, 5, 2.5 and 1.25 μM) of Compound 2 (Chembridge 7646184), Compound 4 (OTAVA 219853) and Compound 5 (VITAS STK508411) together with DMSO control, for 3 hours. Cells were then subjected to heat shock at Tagg(75) for 10 min, and unstable protein was removed by centrifugation step. Following an immuno-blotting step, bands of stable hnRNP A18 protein was quantified, normalized to loading control and plotted using GraphPad Prism software. EC50 values of Compound 2, Compound 4 and Compound 5 compounds were calculated.

[7] = test system: hnRNP A18 targeted 3'UTR (Trx); test: CAT-Trx 3'UTR reporter assay (CAT ELISA) in LOX-IM VI cells; format: cell-based, human; settings: increasing amounts of drugs, next day
Procedure: CAT-ELISA was performed as recommended by the manufacturer (Sigma-Aldrich). Briefly, human melanoma LOX-IM VI cells stably transfected with hnRNP A18-GFP (9) were transiently transfected with a CAT reporter vector harboring Trx 3′UTR (16). Twenty-four hours later the cells were distributed in 6 well plates and treated with increasing amounts of drugs. The next day, the cells were washed, and protein extracted. […] Cleavage of the substrate catalyzed by the peroxidase enzyme was measured on a plate reader at 405 nm.
In order to determine whether hnRNP A18 binding to these compounds disrupted its cellular functions, a cell-based assay was developed as a read out for hnRNP A18 RNA binding activity. A reporter vector harboring a hnRNP A18 targeted 3′UTR (Trx; (16)) downstream of a CAT gene was engineered. Binding of hnRNP A18 to the targeted 3′UTR is expected to stabilize the CAT transcript and increase CAT protein production, which is then measured by ELISA.

Aqueous solubility = format: physicochemical
[8] = test system: Iron Responsive Protein (IRP); test: RNA band shift (EMSA) with Iron Responsive Protein and Iron Responsive Element (specificity); format: binding; settings: very high concentration, decreased specificity
hnRNP A18 RRM = molecular target: T2, hnRNP A18 RRM (Homo sapiens, UniProt Q14011); test: NMR HSQC/TROSY chemical shift perturbation screen; format: binding; settings: 150 μM hnRNP A18, excess compound, 298 K
T2 construct: A18 RNA recognition motif (residues 1-92 of hnRNP A18 wildtype) was expressed and purified; 6x-His (N, cleaved yes); protein G B1 domain (GB1) (N, cleaved yes); made in house; host or cells: E. coli BLD21(DE3) (so in the source)
Procedure: The hnRNP A18 RRM samples used for compound screening via high field NMR spectroscopy using a series of single-quantum coherence (HSQC) experiments contained 0.1 to 0.2 mM ^15N-labeled hnRNP A18 RRM, ultrapure water, 10% D2O, 5% d6-DMSO and up to 5 mM of each of the forty compounds tested, as based on their solubility. All of the HSQC data were collected at 25° C. with a Bruker Avance 800 US2 NMR spectrometer (800.27 MHz, ^1H) equipped with pulsed-field gradients, four frequency channels, an automatic sample changer, and a TXI cryogenic probe. Backbone resonance assignments in the presence of compounds were achieved via compound titrations and monitoring chemical shift changes until solubility limits were reached (<5 mM compound). Data were processed with NMRPipe (35), and proton chemical shifts and their perturbations upon binding the various compounds were reported with respect to the H2O or HDO signal taken as 4.698 ppm relative to external TSP (0.0 ppm).

Row | SMILES | Papp [1] [×10⁻⁶ cm/s] | Effect on cancer cells viability [2] | Effect on normal cells viability [3] | IC50 (hnRNP A18 [4]) [µM] | Disruption of hnRNP A18 RNA binding activity by band shift (hnRNP A18 [5]) | EC50 (hnRNP A18 [6]) [µM] | Production of CAT protein [7] | Aqueous solubility (Aqueous solubility) | Toxicity to normal cells [3] | Concentration at which binding disruption of IRP to Iron Responsive Element was observed [8] [mM] | Chemical shift perturbations of hnRNP A18 RRM residues (hnRNP A18 RRM)
1 | COc1ccccc1C(=O)Nc1nc(-c2ccc(C)cc2)c(NC(C)=O)s1 [Compound 4] | > 20 | preferentially killing cancer cells although less efficiently than Compounds 2 and 3 | no significant effect on normal cells viability | 39 | specifically disrupt hnRNP A18 RNA binding activity | 2.7 | – | – | – | – | –
2 | COc1cccc(C(=O)Nc2nc(-c3ccc(C)cc3)c(NC(=O)c3ccco3)s2)c1 [Compound 6] | – | – | – | – | specifically competed for hnRNP A18 binding activity | – | could only reduce CAT protein levels at the highest concentration | Low aqueous solubility | – | – | –
3 | Cc1sc(NC(=O)c2ccccc2)nc1OC(=O)c1ccccc1 [Compound 5] | > 20 | least effective | – | 2.9 | specifically disrupt hnRNP A18 RNA binding activity | 23.8 | – | – | 20-40% | – | –
4 | Cc1nc(NC(=O)c2ccccc2)sc1-c1csc(Nc2ccc(O)c(C(=O)O)c2)n1 [Compound 1] | – | – | – | 6.4 | out-competed hnRNP A18 RNA consensus motif | – | – | – | – | 5.5 | most significant chemical shift perturbations
5 | CC(=O)Oc1cccc(C(=O)Nc2ccc(C(=O)Nc3nccs3)cc2)c1 [Compound 3] | > 20 | killing all cancer cell lines tested | without affecting the viability of normal human epithelial cells | 13 | specifically disrupt hnRNP A18 RNA binding activity | – | – | – | – | – | –
6 | CC(=O)Oc1ccccc1C(=O)Nc1ccccc1Sc1ncnc2scc(-c3ccccc3)c12 [Compound 2] | > 20 | killing all cancer cell lines tested | without affecting the viability of normal human epithelial cells | 15 | specifically disrupt hnRNP A18 RNA binding activity | 4.7 | – | – | – | – | –
